By logP is commonly meant the decadic logarithm of the partition coefficient of the neutral form, usually between octanol and water. Read a low logP as lower lipophilicity. By logD is commonly meant the decadic logarithm of the distribution of all forms, ionised or not, between an organic phase and buffer at a given pH. Lower therefore signals lower lipophilicity.

On to `CC(=O)N=c1[nH]c(=O)ccn1C1OC(COC(C)=O)C(OC(C)=O)C1OC(C)=O` (stereo not given), for which the log partition coefficient (logP) was -0.16. `N#C/C=C/C#N`: the logP was -0.25.

As to `CN(C)C1=CC(=O)c2ccccc2C1=O`, the logP stood at 1.9. Take `COC(=O)C(Cl)(Cl)Cl`: the lipophilicity (logP) came out at 2.03. Same read-out and setting: for `CCOC(=O)N(C)C` the value was 0.89; for `c1ccc2c(c1)Oc1ccccc1S2`, 4.54.

Regarding `OCC=CCO`, the logP was -0.81.

For `CN(C(F)(F)F)S(=O)(=O)CCCn1ccnc1C=NO`, where the note is “pH 7.4”, the logD came to 1.77. For `CNC(=O)c1ccco1`, the log partition coefficient (logP) stood at 0.23. Turning to `CCOC(=O)N[C@H]1CCc2cc(OC)c(OC)c(OC)c2-c2ccc(OC)c(=O)cc21`, for the setting “pH 7.0”, the log distribution coefficient (logD) stood at 1.3. Turning to `CC(=O)N[C@@H](CC(C)C)C(=O)N[C@@H](CCCNC(=N)N)C(=O)N[C@@H](Cc1ccccc1)C(N)=O`, the logP was -0.06. On the same count and under the same terms, to `BrCCCBr` belongs 2.37. `O=C(NCCN1CCC(O)(c2ccc(Cl)cc2)CC1)c1ccc(F)cc1` gave a lipophilicity (logP) of 2.85. Same read-out and setting: for `c1cnc2nc[nH]c2c1` the value was 0.3; for `CC(C(=O)O)c1ccc(N2C(=O)C3CCCCC3C2=O)cc1` (stereo not given), 2.37. In the case of `O=C(O)COc1cc(F)cc(I)c1`, the logP was determined as 2.42. As to `S=C(N/N=C/c1ccc[nH]1)Nc1ccccc1`, the logP amounted to 3.73. Same read-out and setting: to `CN(C)c1ccc(C#N)cc1` belongs 2.2; to `C=CCOC1=NS(=O)(=O)c2ccccc21`, 1.4; to `COC(=O)/C=C/C(=O)OC`, 0.74.

For `COc1ccc2cc([C@H](C)C(=O)OCC(=O)N(CCO)CCO)ccc2c1`, the logP was determined as 1.7. Regarding `C[C@H](NC(=O)N(CCCl)N=O)C(=O)O`, the log partition coefficient (logP) was found to be 0.78. `O=C(O)Cc1ccccc1Nc1c(F)cccc1Cl` showed a lipophilicity (logP) of 3.8. The molecule `CCn1cc(C)c(=O)[nH]c1=O` showed a logP of -0.15. The same measure, in the same setting: to `CCCSP(=O)(OCC)SCCC` belongs 3.59; to `O=C1C=CC(=O)N1c1ccccc1`, 1.09. The same measure, in the same setting: for `Cc1cc(C)[nH]n1` the value was 1.01; for `O/N=C/c1ccc(Cl)cc1`, 2.67; for `CCOC(=O)CC(=O)C=Cc1ccc2c(c1)OCO2`, 2.35. For the molecule `Cc1ncc([N+](=O)[O-])n1CCNC(=O)OC(C)C`, under “pH 7.4”, the logD is 0.88. For the molecule `CC(C(=O)O)c1ccc(N2C(=O)C3CCCCC3C2O)cc1` (stereo not given), the lipophilicity (logP) was found to be 2.95.

For `CNC(=O)Oc1cccc2c1OC(C)(C)O2`, the logP turned out to be 1.7. Regarding `C=CC1(C)OC(=O)N(c2cc(Cl)cc(Cl)c2)C1=O` (stereo not given), the lipophilicity (logP) came out at 3.1. `Cn1c(N)nc2cc(Cl)c(Cl)cc21`: the lipophilicity (logP) stood at 2.98. `CCCCNC(=S)N(CCCC)CCCC`: the logP came to 3.68.

As to `O=C(O)CCC(=O)c1ccc(N2Cc3ccccc3C2=O)cc1`, the logP turned out to be 1.92. The same measure, in the same setting: to `CN(C)C(=S)NN` belongs -0.3; to `COC(=O)c1ccc(Cl)cc1`, 2.76. As for `Cn1c(N)nc2ccc(Cl)cc21`, the logP was found to be 2.01. `NC(=O)COc1ccccc1Cc1nc(N)cc(N)n1` gave a logD (pH 13.0) of -0.34. `CCNC(=O)C1C2C=CC(C2)C1C(=O)NCC` (stereo not given) displayed a logP of 0.99. Consider `CC(C)CN(CC(O)COc1ccccc1)CC(O)COc1ccccc1` (stereo not given), for which the log distribution coefficient (logD) (pH 13.0) was found to be 3.46.

As for `C1=c2ccc3cccc4ccc(c2c43)CC1`, the logP came out at 4.92. `CC(C)(C)C1=Nc2ccc(Cl)cc2S(=O)(=O)N1` returned a log partition coefficient (logP) of 2.4.

`c1ccc2c(c1)Cc1ccccc1S2` returned a lipophilicity (logP) of 3.86. Under “pH 7.0”, `Nc1nc(=O)n([C@H]2CC[C@@H](CO)O2)cc1I` had a pH-dependent lipophilicity (logD) of -0.31.

The molecule `CN(C)c1ccc2c(c1)C(=O)N(S(C)(=O)=O)C2=O` had a logP of 1.65. `Nc1ccccc1S(N)(=O)=O` came in with a lipophilicity (logP) of 0.22. In the case of `CNC(=O)c1ccccc1C(=O)c1ccccc1`, the log partition coefficient (logP) was 2.09. The same measure, in the same setting: to `CCc1ccncc1` belongs 1.65.

For `OCCCOc1cccc(CN2CCCCC2)c1`, the logD (pH 11.0) amounted to 2.78. Regarding `CC(=NNc1c([N+](=O)[O-])cc(C(F)(F)F)cc1[N+](=O)[O-])C(F)(F)F`, where the note is “pH 4.0”, the pH-dependent lipophilicity (logD) worked out at 3.

The molecule `N#Cc1ccncc1C#N` showed a logP of 0.24. With `c1ccc2c(c1)CCc1ccccc1-2`, the logP came to 4.52. For the molecule `C1CCC2=NCCCN2CC1`, the pH-dependent lipophilicity (logD) (pH 13.0) was 1.38. `COc1ccc([N+](=O)[O-])cc1N` came in with a logP of 1.47. Still for that read-out and setting: to `C1=C\C=C/C=C\C=C/1` belongs 3.08. The molecule `CCCCC#N` had a logD (pH 7.0) of 1.12. Regarding `S=c1nc(-c2ccccc2)[nH][nH]1`, the logD (pH 7.0) came to 1.84. With `ICCCI`, the log partition coefficient (logP) was found to be 3.02. In turn, `Nc1ccc2cc3ccc(N)cc3nc2c1` gave a logD (pH 12.0) of 1.83. Turning to `CCCn1cnc2c(NC(C)=O)ncnc21`, the logP is 0.09. The molecule `CCc1cccnc1` gave a logP of 1.66. The molecule `Cc1ccc2c(c1)nc(N)n2C` returned a logP of 1.47. Molecule `N#Cc1cccc(F)c1` displayed a lipophilicity (logP) of 1.47.

Values taken from the SangsterLogP compilation.
